For orientation: Kd means the free concentration of one partner at which half of the binding sites on the other are occupied at equilibrium, for simple one-to-one binding. Lower therefore signals tighter binding. One may read the IC50 as the concentration needed to halve the response being measured. A low value points to greater potency in that assay. Broadly, the GI50 is the concentration at which growth is held to half of that of the control.

Where two headings read alike, the source gives them in different places.

The target in one data set is T1, TCTP (Homo sapiens, UniProt P13693).
T1 sequence (P13693 1-172): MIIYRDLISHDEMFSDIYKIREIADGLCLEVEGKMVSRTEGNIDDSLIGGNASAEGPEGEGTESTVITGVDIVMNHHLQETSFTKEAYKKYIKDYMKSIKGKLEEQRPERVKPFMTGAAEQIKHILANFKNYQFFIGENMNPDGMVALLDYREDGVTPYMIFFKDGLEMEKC
In words: Interaction with TCTP by surface plasmon resonance (SPR), Biacore T200. It is filed as binding. Particulars: for Kd: TCTP bonded to chip, Biacore T200. The method, then:
The interaction of the synthesized molecules with TCTP was evaluated by the surface plasmon resonance (SPR) technique using the Biacore T200 apparatus.
A beam of polarized monochromatic light illuminates a glass interface between two media with different refractive indices, since the angle of incidence is greater than the limiting angle, all the light is reflected, a phenomenon known as total internal reflection. There is then no refraction but an electromagnetic component of the light, the evanescent wave propagates over a distance equivalent to its own wavelength, perpendicular to the interface. At the level of the gold leaf located at the interface between the two media, a resonance between the gold plasmons and the evanescent wave is observed, which results in a loss of light energy in the beam reflected at a precise angle called the resonance angle. This angle is sensitive to the refractive index of the medium wherein the evanescent wave propagates.
A continuous measurement of the variations in the angle of refraction is carried out using a micro-refractometer producing a sensorgram that allows the fixation of the molecules injected into the microfluidic cell to be monitored in real time. The resonance signal is expressed in resonance units (RU) and reports what is present at a given time in the microfluidic cell.
Thus, TCTP is bonded to a chip consisting of a layer of dextran on a gold foil, which in turn is placed on a glass plate. This layer is sandwiched between a microfluidic cell and a prism.
The synthesized compounds are passed through the microfluidic cell and their interaction is evaluated through the received SPR signal (Table 1).
Background: SPR reads the build-up and loss of mass on a sensor chip optically.

Data set [1] deals with human cancer line HCT116 (colorectal carcinoma). In words: Cytotoxic activity on HCT116, 72 hours incubation. The conditions noted are these: for IC50: Homo sapiens, HCT-116, HCT116, 72 hours incubation, concentration inducing 50% cell death; for antiproliferative activity profile (in words): compared with sertraline; for % (viability) at 10 μM: HCT116, 10 μM; for % (viability) at 1 μM: HCT116, 1 μM. It is filed as cell-based. The method, then: The cytotoxic activity of the prepared compounds was evaluated on the human cancer line HCT116 (colorectal carcinoma). The selected line was incubated at 37° C. in the presence of one of the prepared compounds added to the culture medium at various concentrations. The inhibitory concentration inducing 50% cell death (IC50) was determined after 72 hours incubation for each compound (Table 1).

Another data set deals with human HCT116 cells. In words: Inhibition of cell growth, CellTiter Glo assay. The conditions noted are these: for GI50 / CC50: Homo sapiens. The method, then:
The viability and proliferation of human HCT116 cells is measured using the “CellTiter Glo®” assay (Promega), which is a luminescent measure of the number of living cells. Sertraline and AC070 were tested at 10 concentrations and results are expressed as GI50, TGI, LC50 and IC50 relative to control cells (DMSO).
The CellTiter-Glo® assay is a homogeneous method for determining the number of viable cells in culture based on a quantification of the ATP present, an indicator of metabolically active cells. The homogeneous test procedure involves the addition of a single reagent (the CellTiter-Glo® reagent) directly to the cultured cells in serum-enriched medium.
The results of the test are reported in the following Tables 2 and 3 (Table 2: sertraline and Table 3: AC070): […]
Background: In ATP-based viability assays light output follows the ATP content of the culture.

With `CC(C)OC(=O)c1ccc(C2CCCc3ccccc32)cc1` (centres unmarked) [AC034, Isopropyl 4-(1,2,3,4-tetrahydronaphthalen-1-yl)benzoate], on TCTP, the “affinity for TCTP (in words)” value is “excellent affinity” and binding was characterised by a dissociation constant (Kd) of 29 ± 7 µM. In data set [1], inhibition was half-maximal at 25 ± 9 µM (IC50) and the “antiproliferative activity profile (in words)” value is listed as “identical to that of sertraline”.

`CC(=O)N[C@@H]1CC[C@H](c2ccc(C(=O)O)cc2)c2ccccc21` (relative stereo) [VM055-cis, Cis-4-(4-acetamido-1,2,3,4-tetrahydronaphthalen-1-yl)benzoic acid] returned a Kd at TCTP of 176 µM.

`CC(=O)NC1CCC(c2cccc(S[C@@H]3OC(COC(C)=O)[C@@H](OC(C)=O)C(OC(C)=O)C3OC(C)=O)c2)c2ccccc21` (stereo in doubt) [AC268-cis, Cis-(2S,3R,4S,5R,6R)-2-((3-((4S)-4-acetamido-1,2,3,4-tetrahydronaphthalen-1-yl)phenyl)thio)-6-(acetoxymethyl)tetrahydro-2H-pyran-3,4,5-triyl triacetate]: the dissociation constant Kd on TCTP turned out to be 170 ± 31 µM.

Take `COc1ccc2c(c1)CCCC2c1ccc(Cl)c(Cl)c1` (centres unmarked) [AC095, 1-(3,4-dichlorophenyl)-6-methoxy-1,2,3,4-tetrahydronaphthalene]: binding on TCTP was characterised by a dissociation constant (Kd) of 150 µM. In data set [1], the “% (viability) at 10 μM” value was 10 μM: 40% (viability).

Regarding `Clc1ccc(C2CCCc3ccccc32)cc1Cl` (centres unmarked) [AC096, 1-(3,4-dichlorophenyl)-1,2,3,4-tetrahydronaphthalene], on TCTP, the “affinity for TCTP (in words)” value was “excellent affinity” and the Kd stood at 14 ± 7 µM. Moreover, in data set [1], the “% (viability) at 1 μM” value is listed as 1 μM: 29 ± 3% and the “antiproliferative activity profile (in words)” value was “identical to that of sertraline”.

`CC(=O)NC1CCC(c2ccc(Br)cc2)c2ccccc21` (mixture of isomers) [AC088, N-(4-(4-bromophenyl)-1,2,3,4-tetrahydronaphthalen-1-yl)acetamide]: binding at TCTP was put at a Kd of 135 ± 37 µM. The “% (viability) at 10 μM” value in data set [1] is reported as 10 μM: 33% (viability).

In the case of `CC(=O)NC1CCC(c2cc(SC3OC(COC(C)=O)C(OC(C)=O)C(OC(C)=O)C3OC(C)=O)c(C(=O)Nc3cccc4cccnc34)c(S[C@@H]3OC(COC(C)=O)[C@@H](OC(C)=O)C(OC(C)=O)C3OC(C)=O)c2)c2ccccc21` (stereo in doubt) [AC249-cis, Cis-(2S,3R,4S,5R,6R)-2-((5-((4S)-4-acetamido-1,2,3,4-tetrahydronaphthalen-1-yl)-2-(quinolin-8-ylcarbamoyl)-3-(((2R,3S,4R,5S,6S)-3,4,5-triacetoxy-6-(acetoxymethyl)tetrahydro-2H-pyran-2-yl)thio)phenyl)thio)-6-(acetoxymethyl)tetrahydro-2H-pyran-3,4,5-triyl triacetate], the affinity on TCTP, expressed as Kd, was 8 ± 2 µM.

Take `Ic1cccc(C2CCCc3ccccc32)c1` (centres unmarked) [AC041, 1-(3-iodophenyl)-1,2,3,4-tetrahydronaphthalene]: on TCTP, the “affinity for TCTP (in words)” value was “excellent affinity” and the affinity, expressed as Kd, was 59 ± 30 µM. In data set [1], the IC50 stood at 9 ± 1.2 µM and the “antiproliferative activity profile (in words)” value is given as “identical to that of sertraline”.

For `c1ccc2c(c1)CCCC2c1ccc2[nH]ccc2c1` (centres unmarked) [AC082, 5-(1,2,3,4-tetrahydronaphthalen-1-yl)-1H-indole], binding at TCTP was characterised by a dissociation constant (Kd) of 123 ± 33 µM. Also, in data set [1], the “% (viability) at 1 μM” value was determined as 9 ± 1% and the “% (viability) at 10 μM” value was found to be 33%.

For `CC(=O)NC1CCC(c2cccc(I)c2)c2ccccc21` (mixture of isomers) [AC087, N-(4-(3-iodophenyl)-1,2,3,4-tetrahydronaphthalen-1-yl)acetamide], on TCTP, the “affinity for TCTP (in words)” value was “excellent affinity” and binding was put at a Kd of 16 ± 11 µM. For the same compound, in data set [1], the “% (viability) at 10 μM” value is 10 μM: 33% (viability) and the “antiproliferative activity profile (in words)” value is recorded as “identical to that of sertraline”.

For `COc1ccc2c(c1)CCCC2c1cccc(Cl)c1` (centres unmarked) [AC101, 1-(3-chlorophenyl)-6-methoxy-1,2,3,4-tetrahydronaphthalene], the Kd at TCTP turned out to be 145 ± 34 µM. For the same compound, in data set [1], the IC50 was 7 ± 0.4 µM.

On to `CC(=O)NC1CCC(c2ccc3ccccc3c2)c2ccccc21` (centres unmarked) [AC070, N-(1,2,3,4-tetrahydro-[1,2′-binaphthalen]-4-yl) acetamide], for which, in the data set with human HCT116 cells, the “cytotoxicity compared with sertraline” value was “less cytotoxic than sertraline”. In addition, in the data set with human HCT116 cells (HCT116), the “activity on cell growth compared with sertraline” value is recorded as “slightly less active than sertraline”. Besides, in the data set with human HCT116 cells (HCT116, CellTiter Glo, determination 1), the TGI50 1 worked out at 1.48 µM. In the data set with human HCT116 cells (HCT116, CellTiter Glo, determination 2), this compound registered a TGI50 2 of 1.44 µM. The TGI50 3 with human HCT116 cells (HCT116, CellTiter Glo, determination 3) was 1.41 µM. The same compound came in with a TGI50 Mean in the data set on human HCT116 cells (HCT116, CellTiter Glo, mean) of 1.44 µM. Also, the TGI50 Median with human HCT116 cells (HCT116, CellTiter Glo, median) was found to be 1.44 µM. The GI50 came out at 0.909 µM in the data set with human HCT116 cells (HCT-116, read-out: GI50 1); 0.881 µM in the data set on human HCT116 cells (HCT-116, read-out: GI50 2); 0.878 µM in the data set with human HCT116 cells (HCT-116, read-out: GI50 3); 0.89 µM with human HCT116 cells (HCT-116, read-out: GI50 Mean); 0.889 µM in the data set on human HCT116 cells (HCT-116, read-out: GI50 Median); 0.889 µM in the data set on human HCT116 cells (HCT-116, read-out: cell growth inhibition constant GI50). Besides, the CC50 in the data set with human HCT116 cells (HCT-116, read-out: LC50 1) was determined as 2.34 µM; in the data set on human HCT116 cells (HCT-116, read-out: LC50 2) it was 2.3 µM; in the data set with human HCT116 cells (HCT-116, read-out: LC50 3), 2.2 µM; in the data set on human HCT116 cells (HCT-116, read-out: LC50 Mean) it was 2.28 µM; in the data set on human HCT116 cells (HCT-116, read-out: LC50 Median), 2.28 µM; with human HCT116 cells (HCT-116, read-out: lethal concentration LC50), 2.2 µM.

Turning to `c1ccc2c(c1)SCCC2c1ccc2ccccc2c1` (centres unmarked) [AC085, 4-(naphthalen-2-yl)thiochroman], at TCTP, the “affinity for TCTP (in words)” value is “excellent affinity” and the Kd was 30 µM. Further, in data set [1], the IC50 was determined as 25 ± 1 µM and the “antiproliferative activity profile (in words)” value is given as “identical to that of sertraline”.

Consider `CC(=O)N[C@@H]1CC[C@H](c2ccc(C(=O)NC3OC(COC(C)=O)C(OC(C)=O)C(OC(C)=O)C3OC(C)=O)cc2)c2ccccc21` (stereo in doubt) [VM060-cis, Cis-(2R,3R,4S,5R,6R)-2-(4-acetamido-1,2,3,4-tetrahydronaphthalen-1-yl)benzamido)-6-(acetoxy-methyl)tetrahydro-2H-pyran-3,4,5-triyl triacetate], for which, on TCTP, the Kd was found to be 26 ± 8 µM. Moreover, in data set [1], the “% (viability) at 10 μM” value was 10 μM: 15% (viability).

On to `CC(=O)N[C@@H]1CC[C@H](c2ccc(C(=O)OC(C)C)cc2)c2ccccc21` (relative stereo) [AC056, Cis-isopropyl 4-(4-acetamido-1,2,3,4-tetrahydronaphthalen-1-yl)benzoate], for which, at TCTP, the “affinity for TCTP (in words)” value is on record as “excellent affinity” and the Kd stood at 28.5 ± 10 µM. In data set [1], the IC50 amounted to 17 ± 3 µM and the “antiproliferative activity profile (in words)” value is “identical to that of sertraline”.

Consider `c1ccc2c(c1)OCCC2c1ccc2ccccc2c1` (centres unmarked) [AC069, 4-(naphthalen-2-yl)chroman], for which, on TCTP, the “affinity for TCTP (in words)” value is reported as “excellent affinity” and the Kd stood at 24 ± 16 µM. Moreover, in data set [1], the “% (viability) at 1 μM” value was 0%, the “% (viability) at 10 μM” value is reported as 33% and the “antiproliferative activity profile (in words)” value is “identical to that of sertraline”.

The values above are taken from patent US20200253996A1, “TCTP INHIBITING AGENTS FOR THE TREATMENT OF PROLIFERATIVE DISEASES, INFECTIOUS DISEASES, ALLERGIES, INFLAMMATIONS AND/OR ASTHMA” (UNIVERSITE PARIS-SUD, priority 2017, published 2020).
